# Data: patent US20220008388A1 (Certego Therapeutics Inc., priority 2018, published 2022)
# “Also recorded” adds a separate entry of the source. Read-outs that look alike come from different tables or passages of the source.
# How the values were obtained:
# [1] = female mother rats; cited from earlier work
# [2] = cited from earlier work
# [3] = test system: immediate early gene c-fos expression in the brain; settings: mouse
# Method: (A) Mice were treated with a drug or vehicle solution for the control group using either intraperitoneal (i.p.), per oral (p.o.). subcutaneous (s.c.), intramuscular (i.m.) or intravenous (i.v.) delivery.
# (C) After the aforementioned c-fos induction period, the mice were sacrificed and the c-fos induction was visualized using whole-brain immunostaining. The brains were then chemically cleared and imaged by light-sheet fluorescent microscopy (LSFM).
# (D) The whole-brain scans are depicted as serial section datasets with an XYZ resolution of about 4×4×5 microns.
# (E) The c-fos-positive cells were detected in these datasets using custom algorithms.
# (F) The whole-brain distribution of the detected c-fos-positive cells was then represented in 3D as a spatial map of centroid points in the 3D space of the mouse brain.
# (G) This 3D map distribution was registered to a reference mouse brain and spatially voxelized using overlapping 150-micron sphere voxels.
# This method called “pharmacomapping” (implemented as a fee for service by CRO Certerra, Inc. Farmingdale, N.Y.) is based on a proprietary and largely automated drug-screening platform that comprises whole-brain detection of drug-evoked neuronal activation represented by drug-evoked expression of the immediate early gene (IEG) c-fos. Until now, the detection of c-fos as a marker of brain activation required time-consuming, laborious methods such as in situ hybridization or immunohistochemistry in brain tissue sections, followed by mounting the sections on microscopic slides, manual imaging, and largely visual quantification. Nevertheless, over the last two decades a number of studies used these methods to test drug-evoked activity in the mouse or rat brain for various psychoactive medications, including antipsychotics, antidepressants, stimulants and anxiolytics (Engber et al., 1998; Salminen et al., 1996; SEMBA et al., 1996; Slattery et al., 2005; Sumner et al., 2004).
# In contrast to the older methods, the pharmacomapping method uses largely automated and standardized whole-brain immunostaining and brain clearing together with advanced microscopy (light-sheet fluorescence microscopy, LSFM), computational (e.g. machine learning) and statistical methods (FIG. 1; see, for example, the published U.S. Patent Application No. 2014/0297199, the content of which is incorporated by reference herein in its entirety). The first generation of this platform used serial two-photon tomography (STPT) as a method for imaging and c-fos-GFP mice expressing green fluorescent protein (GFP) under the control of the c-fos promoter (see, e.g., published U.S. Patent Application No. 2014/0297199, the content of which is incorporated by reference herein in its entirety).
# The second generation of the pharmacomapping platform currently employed by Certerra uses whole-brain immunostaining and clearing procedure named iDISCO+ and whole-brain imaging by light-sheet fluorescence microscopy to detect c-fos-positive neurons in wild type mice (Renier et al., 2016).
# [4] = test system: d-amphetamine-induced hyperactivity; test: d-amphetamine-induced hyperlocomotion, rodent model of mania; format: in vivo; settings: mice, 20 min before d-amphetamine 3.5 mg/kg
# [5] = cited from earlier work; remark: listed apart in the source
Structure (SMILES),state of alertness compared to control rats fed placebo [1],adverse side-effects in clinical trials ([2]; human doses equivalent to the mouse 6 mg/kg dose),"effects in sleep onset and sleep maintenance ([2]; insomnia, three-month efficacy study)",brain activation (c-fos induction) ([3]; gaboxadol 3 mg/kg alone (HED about 15 mg)),brain activation (c-fos induction) ([3]; gaboxadol 6 mg/kg alone (HED about 30 mg)),brain activation (c-fos induction) ([3]; gaboxadol 20 mg/kg (HED about 100 mg)),"moderation of d-amphetamine-induced locomotion (ambulatory counts) ([4]; gaboxadol 3 mg/kg, Anova p=0.007, Fisher's PLSD p=0.6)",brain activation (c-fos induction) ([3]; lithium 85 mg/kg alone (HED about 425 mg)),brain activation (c-fos induction) ([3]; lithium 120 mg/kg (HED about 600 mg)),brain activation (c-fos induction) ([3]; lithium 150 mg/kg alone (HED about 750 mg)),brain activation (c-fos induction) ([3]; lithium 200 mg/kg alone (HED about 1000 mg)),brain activation (c-fos induction) ([3]; lithium 300 mg/kg (HED about 1500 mg)),brain activation (c-fos induction) ([3]; lithium 400 mg/kg as printed),"people who stopped taking lithium because of adverse events ([5]; BD patients, epidemiological study (Öhlund et al., 2018)) [%]","patients showing good long-term efficacy ([5]; BD patients, long-term maintenance (Scott et al., 2017))",lithium concentration in drinking water with anti-suicide effect ([5]; drinking water),serum lithium concentration associated with mild toxicity ([5]; human) [mmol/L],serum lithium concentration that can be life-threatening ([5]; human),serum lithium concentration for maintenance treatment ([5]; maintenance of bipolar disorder) [mmol/L],moderation of d-amphetamine-induced locomotion (ambulatory counts) ([4]; lithium 14.1 mg/kg)
[6Li] [lithium-6],very high,,,,,,,,,,,,,,,,,,,
"Oc1noc2c1CCNC2 [gaboxadol, 4,5,6,7-tetrahydroisoxazolo (5,4-c) pyridin-3-ol]",,no adverse side-effects,failed to show significant effects,did not elicit any detectable c-fos signaling activity; also recorded: neither gaboxadol at 3 mg/kg nor lithium at 85 mg/kg alone evoked any brain activation; also recorded: nor gaboxadol at 3 mg/kg (middle row; human equivalent dose about 15 mg) induced any brain activation on their own,moderate brain activation,broad cortical activation,only modestly,,,,,,,,,,,,,
"O=C([O-])[O-].[Li+].[Li+] [lithium, lithium carbonate]",low,,,,,,,"did not elicit any detectable c-fos signaling activity; also recorded: neither gaboxadol at 3 mg/kg nor lithium at 85 mg/kg alone evoked any brain activation; also recorded: neither lithium at 85 mg/kg (top row; human equivalent dose about 425 mg), nor gaboxadol at 3 mg/kg (middle row; human equivalent dose about 15 mg) induced any brain activation on their own",modest to moderate activation of a few structures,modest to moderate activation of a few structures; also recorded: moderate brain activation,considerably broader activation; also recorded: moderate brain activation,prominently activated; also recorded: closely matched that of gaboxadol at 20 mg/kg; also recorded: broad activation pattern,considerably broader activation,62,approximately 30%,less than 150 μg/L,1.2 to 2.5,greater than 3.5 mmol/L,0.6 to 1.0,had no behavioral effect; also recorded: not moderated
